Measurements from paper PMC10141580, “Cyclic Dichalcogenides Extend the Reach of Bioreductive Prodrugs to Harness Thiol/Disulfide Oxidoreductases: Applications to seco-Duocarmycins Targeting the Thioredoxin System” (ACS Central Science, 2023).
Where two headings read alike, the source gives them in different places.

Assays:
[1] = Cell-free HPLC reduction assay (GSH or TCEP challenge); details: 5 mM GSH (50 equiv), 24 h
Excerpt: These performance features had not been tested with naphthols, so we used HPLC to test them and show their reduction-based activation sequence (Figure 2c and Figures S4–S6).
In brief, treatment with the quantitative reductant TCEP triggered a reaction cascade matching the activation sequence we expected (Figure 2c): dichalcogenides are reduced to dichalcogenols that cyclize, giving the naphthol cargos (plus thiol trigger byproduct) that evolve to the activated cyclopropanes (Figure 5).
The mobile phase consists of eluent A: water (analytical
grade, 0.1% formic acid) and eluent B: MeCN (analytical grade, 0.1% formic acid).
using a gradient of 10% B t o 90% B over 10 min.
Reduction assay using TCEP and GSH
tris(2-carboxyethyl)phospine) (TCEP, 5 mM in TE-bu f f e r ) , or reduced glut at hione (GSH, 50 mM in TE-buf f er) or
else blank TE-buffer. Final concentrations: Prodrug (0.1 mM) , TCEP ( 0. 5 mM) , G SH ( 5 mM). The blank sample
was measured after 10 min (“pure”) and 24 h (“O H-“) to control for basic hydrolysis. The GSH sample was
measured after 24 h to control for monothiol-based reductive release. The TCEP sample was measured at several […]
extracted for each of the intermediate species and final r elease products. Peak areas were calculated relative to
the sum of all peak areas at 320 nm to quantify individual species at each timepoints. […]

[2] = test system: NCI-60 standardized human tumor cell line panel; assay: cells; format: cell-based; details: AZI sheet, read-out: GI50
HeLa-HRE cells = assay: Resazurin cytotoxicity assay, HeLa-HRE, 48 h; details: for IC50(HeLa)/IC50(A549): ratio HeLa vs A549
Procedure: (§1) We used A549 lung cancer and HeLa cervical cancer cell lines for initial screening of the prodrugs.
HeLa-HRE cells were treated with prodrugs of the
Dose -response curves were calculated from at least 27 incremental single concentrations over a
range of at least three log units.

A549 cells = assay: Resazurin cytotoxicity assay, A549, 72 h; details: read-out: IC50(nM): A549
Procedure: as §1
Fi gure S9: Cell ular resazurin-based cytotoxi ci ty as s a y.
Dose -response curves were calculated from at least 27 incremental single concentrations over a range
of at least three log units. Individual experiments with annotated experiment numbers are shown for each prodrug

Balb/c mice [3] = assay: Single-dose toxicity study; format: in vivo; details: week following treatment
Procedure: To test if low prodrug activation could enable in vivo use, we performed dosing and toxicity studies in Balb/c mice, comparing the toxicity and the tolerated dosing of low-reducible SS60-CBI-AZI or substantially reducible SeS60-CBI-AZI and to those of non-reducible carbamate O56-CBI-AZI. Single-dose toxicity was studied over the range 0.1–10 mg/kg.
Methods for in vivo animal studies
(§2) All in vivo studies were conducted as contract research together with React ionBiology Eur ope G mbH (Freiburg,
(§3) Germany), EPO – Experimental Pharmacology & Oncology GmbH (Berlin, Germany); Bient a/ Enam ine Lt d. (Kyiv,
(§4) Ukraine) and Leit at – Managing Technologies (Barcelona, Spain), adhering to the respective animal welfare
(§5) Mice were kept in individually ventilated cages at constant temperature (22±2 °C, air-conditioned) and humidity (45
(§6) – 65%), under optimum hygienic conditions with 10 – 15 air changes per hour. A cycle of 12 h artificial fluorescent
(§7) light ning and 12 h darkness was applied , and animal behavior was monitored daily throughout the studies. The
(§8) animals received food and water ad libit um.
(§9) To evaluate toxicity of selected compounds, dose level selection studies within dose range from 0.1 mg/kg to
10 mg/kg were performed by intravenous administration into Balb /c mice. […]
were monitored after each drug administration and three times per week for 21 consecutive days after the first […]

[4] = In vivo plasma pharmacokinetics; details: Balb/c mice, i.v. 5 mg/kg
Procedure: We first examined the in vivo pharmacokinetics of representative compound SS60-CBI-AZI in Balb/c mice after i.v. administration at 5 mg/kg (3 animals per time point, 4 time points from 5 to 90 min post injection).
as §5, §6, §7, §8
Pharm acokinetics o f SS60-CBI-AZI
Following single dose intravenous administration, levels of SS60-CBI-AZI in blood plasm a over t im e wer e
det ermined by HPLC-MS/MS. Treatm ent gr oups wer e three Balb/c mice (randomly assigned ) per t ime point (t otal:
Blood collection was performed from the orbital sinus in
microtainers containing K 2EDTA. All samples were immediately processed, flash -frozen and stored at -70 °C unt il
400 ng/mL in et hanol). After mixing by pipetting and centrifuging for 4 min at 6000 rpm, 2 μL of each supernatant
was injected into LC-MS/MS (Shimadzu LC: 2 isocratic pumps LC-10ADvp, autosampler SIL-20AC, sub-controller
FCV-14AH, degasser DGU-14 A; AB Sciex MS: API 3000 ( tr iple-quadrupole), ESI). The data acquisition and system […]

mouse = assay: Tolerability for repeated dose administration in vivo (summary); details: repeated dose administration
Balb/c mice [5] = assay: Moderate repeated dosing tolerability study; format: in vivo
Procedure: Next, a moderate repeated dosing study in Balb/c mice (3 animals per group) tested the importance of solubilizing the prodrugs.
Methods for in vivo animal studies
as §2, §3, §4, §5, §6, §7, §8, §9
10 mg/kg were performed by intravenous administration into Balb /c mice. Each dose for each tested compound
was administered in one mouse.
changes and clinical signs of gross toxicity three tim es per week for 21 consecutive days of post-dosing period.
After the first week of observation without adverse events, two doses for each test compound were selected as
tolerated. These two doses were tested in two additional mice for confirmation of toler ability. Additional animals
consecutive days of post-dosing period. Toxicity of repeated administrations was tested wit h t hr ee repeat ed pr e-
selected doses at a dosing interval of 7 days. Mortality, body weight changes, and clinical signs of gross toxicity
were monitored after each drug administration and three times per week for 21 consecutive days after the first
compound administration. Bleed ing with subsequent hematological tests, clinical chemistry parameters analysis
(ALT, AST, ALP, LDH, creatine kinase, creatinine, urea, cholesterol, and triglycerides), and necropsy with
macroscopic inspection were performed on the terminal day of the repeated dosing-regime.
To test tolerability of selected compounds in vivo, female BALB/c mice were randomized by weight into seven
groups of t hree animals.

[6] = test system: Balb/c mice with 4T1 tumors; assay: 4T1-bearing tolerability study; details: 10 mg/kg
Excerpt: Finally, another large study intended for antitumor efficacy also had to be examined only in terms of tolerability.
(a,c, e, g, h): BxPC-3 subcutaneous xenograft in NMRi mice, 10 mice per group; ( b, d, f,i ,j): 4T1 murine breast cancer syngeneic orthotopic implant in Balb/c mice,
(a,b) Bodyweights (means); (c, d) absolute tumor volumes (medians); (e,f) tumor volumes relative to individual volumes at start of treatment (medians); (g,h,i ,j) absolute and relative tumor volumes at final day of study (datapoints with means and 95% confidence interval). All tumor measurements are in vivo caliper measurements. Dotted vertical lines indicate days of treatment. All CBI groups dosed at 3 mg/kg i. v., ca . 1 0 0 µL injection volume in vehicle (10:90 DMSO:saline).

4T1 murine breast cancer = assay: 4T1 orthotopic breast cancer efficacy study; format: in vivo; details: 4T1 in Balb/c mice; CBI prodrugs 3 mg/kg
Excerpt: We then moved to in vivo anticancer efficacy trials of these prodrugs. […] As one model we chose the syngeneic murine breast cancer 4T1, implanted orthotopically (at the native tissue site) into the fat pad of immunocompetent Balb/c mice (i.e., offering a realistic immune system and tumor microenvironment). This model gives rapid, aggressive tumor growth.[52] As a second model, we chose to xenograft human BxPC-3 pancreatic adenocarcinoma cells into immunodeficient hosts. This is a slower-growing model, with low metastasis, that can be more resistant to traditional antimitotic therapy.[53],[54] Mice were implanted, randomized once tumors reached 100–150 mm^3 volume, and treated once or twice weekly with prodrug or control compounds typically at 3 mg/kg (8–12 animals per condition, Figure 10a). Tumors were measured by caliper during the assay and weighed at termination.
7. 2. in vivo efficacy mouse studies
4T1 efficacy study BxPC-3 efficacy study a Absolute tumour volumes b Absolute tumour volumes […]
days after tumor implantation days after tumor implantation c Relative tumour volumes d Relative tumour volumes […]
e RTV! fi"al day of followu# f ex viv tumour weights g RTV! fi"al day of followu# h ex viv tumour weights (. mice remain in all *roups) (for animals left at day 31)(all *roups have statistical power)(day "2/ all animals left) […]
vehicle(1x)(1x)(1x) (2x)(2x) […]
P-##"0-#$%-&'%P-!!"0-#$%-&'%P-!!"0-#$%-()%P-!!"0-#$%-&'% %rinotecan %rinotecan P-##"0-#$%-&'%P-!!"0-#$%-()%P-!!"0-#$%-&'%P-!!"0-#$%-&'% P-!!"0-#$%-&'% P-!!"0-#$%-&'% […]
i Body weights $ Body weights […]
implant in Balb/c mice, 8 mice per group; (b, d,g,h,j): BxPC-3 subcutaneous xenograft in NMRi mice, 8 mice per […]
treatment (m e d ia n); (e,g) in vivo caliper measurement of relative tum or volumes at final day of followup [last day when all mice in all groups remain in the study] […]
tumor weights at termination of study (only mice not terminated on ethical grounds before the indicated days were harvested); (i,j) Bodyweights (means).
(BxPC-3 study); dotted vertical lines indicate days of [potential] treatment.

[7] = read-out: IC50(nM): HeLa, HeLa, 48 h

## CN1CCN(C(=O)Oc2cc3c(c4ccccc24)C(CCl)CN3C(=O)c2cc3cc(OCCCN4CCC4)ccc3[nH]2)C2CSSCC21 (mixture of isomers) [Me-SS66T-CBI-AZI]
[1]
  release/reduction on GSH challenge: partial reduction
[2]; 786-0
  GI50: 13 nM
[2]; A498
  GI50: 15 nM
[2]; A549/ATCC
  GI50: 1.8 nM
[2]; ACHN
  GI50: 2.4 nM
[2]; BT-549
  GI50: 21 nM
[2]; CAKI-1
  GI50: 2.8 nM
[2]; CCRF-CEM
  GI50: 7.4 nM
[2]; COLO 205
  GI50: 15 nM
[2]; DU-145
  GI50: 3.9 nM
[2]; EKVX
  GI50: 12 nM
[2]; HCC-2998
  GI50: 3.5 nM
[2]; HCT-15
  GI50: 3.8 nM
[2]; HCT-116
  GI50: 6.8 nM
[2]; HL-60(TB)
  GI50: 9.9 nM
[2]; HOP-62
  GI50: 5.2 nM
[2]; HOP-92
  GI50: 18 nM
[2]; HT29
  GI50: 8.3 nM
[2]; IGROV1
  GI50: 17 nM
[2]; K-562
  GI50: 4.4 nM
[2]; KM12
  GI50: 16 nM
[2]; LOX IMVI
  GI50: 2.2 nM
[2]; M14
  GI50: 5.6 nM
[2]; MALME-3M
  GI50: 6.4 nM
[2]; MDA-MB-231
  GI50: 19.2 nM
[2]; MDA-MB-435
  GI50: 13 nM
[2]; MDA-MB-468
  GI50: 2.6 nM
[2]; MOLT-4
  GI50: 4.5 nM
[2]; NCI-H23
  GI50: 1.7 nM
[2]; NCI-H226
  GI50: 3.4 nM
[2]; NCI-H522
  GI50: 11 nM
[2]; OVCAR-3
  GI50: 27 nM
[2]; OVCAR-4
  GI50: 28 nM
[2]; OVCAR-5
  GI50: 6.9 nM
[2]; OVCAR-8
  GI50: 3.3 nM
[2]; PC-3
  GI50: 19.7 nM
[2]; RPMI-8226
  GI50: 23 nM
[2]; RXF 393
  GI50: 5.7 nM
[2]; SF-268
  GI50: 9 nM
[2]; SF-295
  GI50: 2.2 nM
[2]; SF-539
  GI50: 5.2 nM
[2]; SK-MEL-2
  GI50: 19 nM
[2]; SK-MEL-5
  GI50: 2.3 nM
[2]; SK-MEL-28
  GI50: 4.8 nM
[2]; SK-OV-3
  GI50: 15 nM
[2]; SN12C
  GI50: 10 nM
[2]; SNB-19
  GI50: 5.8 nM
[2]; SR
  GI50: 1.7 nM
[2]; SW-620
  GI50: 2.3 nM
[2]; T-47D
  GI50: 15 nM
[2]; TK-10
  GI50: 22 nM
[2]; U251
  GI50: 1.6 nM
[2]; UACC-62
  GI50: 2.2 nM
[2]; UACC-257
  GI50: 15 nM
[2]; UO-31
  GI50: 3.8 nM
HeLa-HRE cells
  IC50(HeLa)/IC50(A549): 1.0
HeLa-HRE cells; [7]
  IC50: 49 nM
A549 cells
  IC50: 51 nM

## O=C(c1cc2cc(OCCCN3CCC3)ccc2[nH]1)N1C[C@@H](CCl)c2c1cc(OCc1ccccc1)c1ccccc21 [OBn-CBI-AZI]
Balb/c mice [3]
  outcome at 10 mg/kg single dose: not lethal
[2]; 786-0
  GI50: 270 nM
[2]; A498
  GI50: 380 nM
[2]; A549/ATCC
  GI50: 160 nM
[2]; ACHN
  GI50: 35 nM
[2]; CAKI-1
  GI50: 190 nM
[2]; CCRF-CEM
  GI50: 410 nM
[2]; COLO 205
  GI50: 280 nM
[2]; EKVX
  GI50: 370 nM
[2]; HCC-2998
  GI50: 320 nM
[2]; HCT-15
  GI50: 130 nM
[2]; HCT-116
  GI50: 640 nM
[2]; HL-60(TB)
  GI50: 440 nM
[2]; HOP-62
  GI50: 140 nM
[2]; HOP-92
  GI50: 500 nM
[2]; HT29
  GI50: 270 nM
[2]; IGROV1
  GI50: 190 nM
[2]; K-562
  GI50: 250 nM
[2]; KM12
  GI50: 810 nM
[2]; LOX IMVI
  GI50: 56 nM
[2]; M14
  GI50: 210 nM
[2]; MALME-3M
  GI50: 280 nM
[2]; MDA-MB-231
  GI50: 3070 nM
[2]; MDA-MB-435
  GI50: 330 nM
[2]; MOLT-4
  GI50: 270 nM
[2]; NCI-H23
  GI50: 73 nM
[2]; NCI-H226
  GI50: 210 nM
[2]; NCI-H460
  GI50: 17 nM
[2]; NCI-H522
  GI50: 380 nM
[2]; OVCAR-3
  GI50: 500 nM
[2]; OVCAR-4
  GI50: 540 nM
[2]; OVCAR-5
  GI50: 340 nM
[2]; OVCAR-8
  GI50: 240 nM
[2]; RPMI-8226
  GI50: 500 nM
[2]; RXF 393
  GI50: 230 nM
[2]; SF-268
  GI50: 330 nM
[2]; SF-295
  GI50: 46 nM
[2]; SF-539
  GI50: 290 nM
[2]; SK-MEL-2
  GI50: 370 nM
[2]; SK-MEL-5
  GI50: 270 nM
[2]; SK-MEL-28
  GI50: 330 nM
[2]; SK-OV-3
  GI50: 450 nM
[2]; SN12C
  GI50: 360 nM
[2]; SNB-19
  GI50: 330 nM
[2]; SR
  GI50: 44 nM
[2]; SW-620
  GI50: 260 nM
[2]; TK-10
  GI50: 560 nM
[2]; U251
  GI50: 61 nM
[2]; UACC-62
  GI50: 62 nM
[2]; UACC-257
  GI50: 390 nM
[2]; UO-31
  GI50: 260 nM
HeLa-HRE cells; initial screening, A549 and HeLa cell lines
  IC50: > 1000 nM
HeLa-HRE cells
  IC50(HeLa)/IC50(A549): 1.8
HeLa-HRE cells; [7]
  IC50: 750 nM
A549 cells
  IC50: 420 nM

## CN(C(=O)Oc1cc2c(c3ccccc13)[C@H](CCl)CN2C(=O)c1cc2cc(OCCCN3CCC3)ccc2[nH]1)[C@H]1CCSSC1 [SS60-CBI-AZI]
[4]
  released cargo in plasma: no released HO-CBI-AZI, or activated cyclopropane, or adducts, were detected
[4]; mouse, plasma, iv, HPLC-MS/MS
  half-life: ~20 min
mouse
  remarks: adverse effects
HeLa-HRE cells; Homo sapiens, HeLa, 48 h, read-out: IC50(nM): HeLa
  IC50: 96 nM
HeLa-HRE cells
  IC50(HeLa)/IC50(A549): 0.8
Balb/c mice [5]; once weekly
  outcome of repeated dosing at 3 mg/kg: significant loss of body weight
Balb/c mice [5]; treated twice a week
  outcome of repeated dosing at 1 mg/kg: tolerated
A549 cells; Homo sapiens
  IC50: 120 nM

## CCc1c2c(nc3ccc(OC(=O)N4CCC(N5CCCCC5)CC4)cc13)-c1cc3c(c(=O)n1C2)COC(=O)[C@]3(O)CC [irinotecan, reference compound]
[6]
  effect on tumor growth: failed to slow tumor growth
4T1 murine breast cancer
  effect on tumor growth: expected tumor-slowing effect
